For test [1], the target named is Insulin receptor-related protein (Homo sapiens) (UniProt P14616). The test is described as follows: Selectivity interaction (KinomeScan (DiscoverX)) EUB0001619a INSRR. Conditions: at 1 µM.
In test [2] the target is T1, Serine/threonine-protein kinase RIO3 (Homo sapiens) (UniProt O14730).
T1 sequence (whole entry): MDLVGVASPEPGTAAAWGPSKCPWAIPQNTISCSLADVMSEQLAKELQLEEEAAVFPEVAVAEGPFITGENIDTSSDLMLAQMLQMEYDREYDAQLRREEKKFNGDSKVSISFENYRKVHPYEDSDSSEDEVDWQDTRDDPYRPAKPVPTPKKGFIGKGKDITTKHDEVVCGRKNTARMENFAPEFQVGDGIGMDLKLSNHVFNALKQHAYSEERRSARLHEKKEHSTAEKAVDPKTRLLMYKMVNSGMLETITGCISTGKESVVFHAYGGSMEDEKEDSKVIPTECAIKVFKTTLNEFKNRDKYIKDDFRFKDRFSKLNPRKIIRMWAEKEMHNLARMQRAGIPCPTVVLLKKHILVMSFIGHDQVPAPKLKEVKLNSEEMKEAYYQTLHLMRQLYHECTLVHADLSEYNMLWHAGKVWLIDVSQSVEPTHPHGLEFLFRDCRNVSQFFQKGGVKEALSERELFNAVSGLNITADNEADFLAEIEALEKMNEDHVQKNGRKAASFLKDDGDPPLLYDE
The test is described as follows: Selectivity interaction (KinomeScan (DiscoverX)) EUB0001619a RIOK3. Conditions: at 1 µM.

The target of test [3] is Dual specificity testis-specific protein kinase 1 (Homo sapiens) (UniProt Q15569). The test is described as follows: Selectivity interaction (KinomeScan (DiscoverX)) EUB0000695a TESK1. Conditions: at 100 nM.
Dual specificity testis-specific protein kinase 1 (Homo sapiens), sequence (Q15569 whole entry, looked up): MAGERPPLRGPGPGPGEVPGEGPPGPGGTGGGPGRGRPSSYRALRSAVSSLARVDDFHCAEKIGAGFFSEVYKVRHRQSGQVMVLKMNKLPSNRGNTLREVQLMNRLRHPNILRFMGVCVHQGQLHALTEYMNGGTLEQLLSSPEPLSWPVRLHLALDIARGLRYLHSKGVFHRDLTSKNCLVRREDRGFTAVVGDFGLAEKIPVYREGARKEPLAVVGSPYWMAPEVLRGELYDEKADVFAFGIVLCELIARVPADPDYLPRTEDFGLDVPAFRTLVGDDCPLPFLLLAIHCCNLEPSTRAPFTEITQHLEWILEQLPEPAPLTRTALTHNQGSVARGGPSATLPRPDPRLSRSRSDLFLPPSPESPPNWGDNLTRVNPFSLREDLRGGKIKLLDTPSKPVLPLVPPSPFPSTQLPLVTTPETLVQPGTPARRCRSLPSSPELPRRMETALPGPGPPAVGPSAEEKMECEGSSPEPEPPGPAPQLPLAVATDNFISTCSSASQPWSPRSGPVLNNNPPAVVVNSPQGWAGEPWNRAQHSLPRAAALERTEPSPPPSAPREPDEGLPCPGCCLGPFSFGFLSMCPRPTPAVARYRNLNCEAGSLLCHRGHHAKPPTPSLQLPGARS
Test [4] has as its target Atypical kinase COQ8A, mitochondrial (Homo sapiens, UniProt Q8NI60). Put plainly: Selectivity interaction (KinomeScan (DiscoverX)) EUB0000607a ADCK3. Conditions: at 10 µM.
The target in test [5] is T2, Serine/threonine-protein kinase D2 (Homo sapiens) (UniProt Q9BZL6).
T2 sequence (whole entry): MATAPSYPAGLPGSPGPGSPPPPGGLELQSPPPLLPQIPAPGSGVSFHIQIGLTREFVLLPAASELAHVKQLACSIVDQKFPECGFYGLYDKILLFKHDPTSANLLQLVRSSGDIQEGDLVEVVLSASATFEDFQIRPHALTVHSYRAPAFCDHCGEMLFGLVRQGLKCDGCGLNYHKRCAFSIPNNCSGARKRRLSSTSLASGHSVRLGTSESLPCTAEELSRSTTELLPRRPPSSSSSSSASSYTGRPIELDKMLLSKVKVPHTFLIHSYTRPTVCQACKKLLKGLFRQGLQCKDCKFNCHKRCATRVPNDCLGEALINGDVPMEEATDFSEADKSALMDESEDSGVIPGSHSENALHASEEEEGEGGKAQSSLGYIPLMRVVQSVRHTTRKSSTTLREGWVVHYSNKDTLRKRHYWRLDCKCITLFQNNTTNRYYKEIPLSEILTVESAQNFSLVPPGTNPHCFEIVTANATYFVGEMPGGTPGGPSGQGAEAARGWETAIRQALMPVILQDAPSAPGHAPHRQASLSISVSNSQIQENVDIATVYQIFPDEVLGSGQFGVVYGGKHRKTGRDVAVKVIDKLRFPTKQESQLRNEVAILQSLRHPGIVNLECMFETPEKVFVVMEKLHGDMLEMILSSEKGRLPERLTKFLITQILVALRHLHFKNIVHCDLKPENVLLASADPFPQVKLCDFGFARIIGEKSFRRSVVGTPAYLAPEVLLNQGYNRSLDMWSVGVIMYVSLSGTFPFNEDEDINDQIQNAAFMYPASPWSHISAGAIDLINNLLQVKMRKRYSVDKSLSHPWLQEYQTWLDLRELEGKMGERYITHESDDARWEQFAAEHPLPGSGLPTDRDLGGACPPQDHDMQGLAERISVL
Put plainly: Selectivity interaction (KinomeScan (DiscoverX)) EUB0000607a PRKD2. Conditions: at 10 µM.

Test [6] deals with Calcium/calmodulin-dependent protein kinase type II subunit gamma (Homo sapiens) (UniProt Q13555). The test is described as follows: Selectivity interaction (KinomeScan (DiscoverX)) EUB0000045b CAMK2G.
Calcium/calmodulin-dependent protein kinase type II subunit gamma (Homo sapiens), sequence (Q13555 whole entry): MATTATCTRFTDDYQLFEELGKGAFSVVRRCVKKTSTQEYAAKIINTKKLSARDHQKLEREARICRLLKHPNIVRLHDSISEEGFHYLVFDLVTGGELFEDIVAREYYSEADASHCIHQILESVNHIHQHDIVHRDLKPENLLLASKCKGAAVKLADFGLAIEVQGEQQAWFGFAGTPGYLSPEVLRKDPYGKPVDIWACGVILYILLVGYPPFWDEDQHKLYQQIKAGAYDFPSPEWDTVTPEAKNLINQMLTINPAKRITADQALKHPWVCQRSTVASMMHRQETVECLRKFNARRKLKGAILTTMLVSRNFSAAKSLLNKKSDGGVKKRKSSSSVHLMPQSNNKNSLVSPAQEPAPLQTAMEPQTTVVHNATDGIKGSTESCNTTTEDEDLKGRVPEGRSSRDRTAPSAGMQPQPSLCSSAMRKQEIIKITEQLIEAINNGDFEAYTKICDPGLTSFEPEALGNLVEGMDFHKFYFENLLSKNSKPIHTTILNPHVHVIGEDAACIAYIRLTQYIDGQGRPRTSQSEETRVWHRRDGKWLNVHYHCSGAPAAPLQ
The target of the next test is Insulin receptor (Homo sapiens, UniProt P06213). Put plainly: Selectivity interaction (Upstate Kinase Profiler service (Millipore)) EUB0000056c INSR. The following applies: at 1 µM.
Insulin receptor, sequence (P06213 28-758 limits assumed): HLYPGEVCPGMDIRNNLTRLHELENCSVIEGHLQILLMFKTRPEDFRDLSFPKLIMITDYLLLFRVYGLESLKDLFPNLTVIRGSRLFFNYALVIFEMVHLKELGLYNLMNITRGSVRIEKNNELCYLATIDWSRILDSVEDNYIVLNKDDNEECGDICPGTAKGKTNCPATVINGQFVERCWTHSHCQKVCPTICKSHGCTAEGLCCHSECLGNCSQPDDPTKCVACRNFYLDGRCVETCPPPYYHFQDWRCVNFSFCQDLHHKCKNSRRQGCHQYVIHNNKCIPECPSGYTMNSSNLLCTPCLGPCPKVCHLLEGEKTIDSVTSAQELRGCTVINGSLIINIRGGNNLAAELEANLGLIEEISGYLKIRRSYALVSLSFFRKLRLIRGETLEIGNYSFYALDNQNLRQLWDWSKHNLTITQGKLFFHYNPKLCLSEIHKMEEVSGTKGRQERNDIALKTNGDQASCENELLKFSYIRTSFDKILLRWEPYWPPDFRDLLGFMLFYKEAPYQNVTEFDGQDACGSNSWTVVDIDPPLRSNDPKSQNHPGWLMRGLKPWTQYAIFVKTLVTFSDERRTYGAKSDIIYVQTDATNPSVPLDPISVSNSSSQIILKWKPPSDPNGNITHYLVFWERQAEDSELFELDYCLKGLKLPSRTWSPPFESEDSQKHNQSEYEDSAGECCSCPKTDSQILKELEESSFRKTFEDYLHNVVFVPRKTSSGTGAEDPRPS
Insulin receptor, sequence (P06213 763-1382 limits assumed): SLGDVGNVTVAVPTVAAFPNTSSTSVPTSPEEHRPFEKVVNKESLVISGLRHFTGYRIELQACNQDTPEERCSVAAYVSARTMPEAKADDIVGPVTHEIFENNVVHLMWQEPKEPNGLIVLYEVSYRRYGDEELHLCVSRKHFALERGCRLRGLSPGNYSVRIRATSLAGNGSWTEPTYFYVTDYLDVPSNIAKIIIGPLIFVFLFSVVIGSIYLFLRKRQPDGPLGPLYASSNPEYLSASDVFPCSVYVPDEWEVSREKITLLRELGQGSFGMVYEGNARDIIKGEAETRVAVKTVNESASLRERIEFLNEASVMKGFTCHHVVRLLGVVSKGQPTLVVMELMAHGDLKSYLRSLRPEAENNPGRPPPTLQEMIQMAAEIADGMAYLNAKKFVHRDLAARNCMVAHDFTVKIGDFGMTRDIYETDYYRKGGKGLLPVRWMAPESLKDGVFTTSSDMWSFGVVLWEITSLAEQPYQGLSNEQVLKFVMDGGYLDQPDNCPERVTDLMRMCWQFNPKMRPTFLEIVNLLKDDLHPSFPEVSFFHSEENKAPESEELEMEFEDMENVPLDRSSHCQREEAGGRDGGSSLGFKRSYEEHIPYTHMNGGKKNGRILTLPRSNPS
Test [7] concerns the target Vascular endothelial growth factor receptor 1 (Homo sapiens) (UniProt P17948). Put plainly: Selectivity interaction (KinomeScan (DiscoverX)) EUB0000655a FLT1. The following applies: at 10 µM.
The target of test [8] is Serine/threonine-protein kinase/endoribonuclease IRE1 (Homo sapiens) (UniProt O75460). Put plainly: Selectivity interaction (KinomeScan (DiscoverX)) EUB0000229b ERN1. Conditions: at 10 µM.
Serine/threonine-protein kinase/endoribonuclease IRE1 (Homo sapiens), sequence (O75460 19-977 limits assumed): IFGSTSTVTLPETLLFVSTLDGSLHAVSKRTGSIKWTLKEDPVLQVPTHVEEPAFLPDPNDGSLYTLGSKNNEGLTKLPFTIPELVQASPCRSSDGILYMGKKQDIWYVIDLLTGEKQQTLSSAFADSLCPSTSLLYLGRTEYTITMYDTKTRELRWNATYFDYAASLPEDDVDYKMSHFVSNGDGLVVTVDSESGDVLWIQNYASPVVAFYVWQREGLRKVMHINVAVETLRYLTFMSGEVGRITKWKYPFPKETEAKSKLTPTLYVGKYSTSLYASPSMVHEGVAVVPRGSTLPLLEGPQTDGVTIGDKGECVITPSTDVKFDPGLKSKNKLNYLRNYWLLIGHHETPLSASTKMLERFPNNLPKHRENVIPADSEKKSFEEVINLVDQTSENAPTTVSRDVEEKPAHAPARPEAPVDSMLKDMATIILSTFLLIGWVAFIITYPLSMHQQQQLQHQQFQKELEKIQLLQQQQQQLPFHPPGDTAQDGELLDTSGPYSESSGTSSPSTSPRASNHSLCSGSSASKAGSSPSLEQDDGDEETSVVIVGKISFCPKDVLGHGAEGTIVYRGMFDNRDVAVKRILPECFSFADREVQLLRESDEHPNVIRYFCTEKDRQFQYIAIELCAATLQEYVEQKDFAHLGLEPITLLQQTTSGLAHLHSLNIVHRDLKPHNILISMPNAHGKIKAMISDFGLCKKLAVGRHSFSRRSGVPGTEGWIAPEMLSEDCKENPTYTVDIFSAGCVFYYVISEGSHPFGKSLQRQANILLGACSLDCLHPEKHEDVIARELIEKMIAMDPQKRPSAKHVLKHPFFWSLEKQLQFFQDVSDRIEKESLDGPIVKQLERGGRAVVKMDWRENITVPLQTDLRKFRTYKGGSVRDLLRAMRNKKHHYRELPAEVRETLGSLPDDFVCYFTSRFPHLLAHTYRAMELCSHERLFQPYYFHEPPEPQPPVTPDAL

Structures are written as SMILES.

These results are taken from ChEMBL document CHEMBL5465560, “Selectivity Literature for EUbOPEN Chemogenomic Library” (2024).

Vascular endothelial growth factor receptor 1 (Homo sapiens), sequence (P17948 whole entry): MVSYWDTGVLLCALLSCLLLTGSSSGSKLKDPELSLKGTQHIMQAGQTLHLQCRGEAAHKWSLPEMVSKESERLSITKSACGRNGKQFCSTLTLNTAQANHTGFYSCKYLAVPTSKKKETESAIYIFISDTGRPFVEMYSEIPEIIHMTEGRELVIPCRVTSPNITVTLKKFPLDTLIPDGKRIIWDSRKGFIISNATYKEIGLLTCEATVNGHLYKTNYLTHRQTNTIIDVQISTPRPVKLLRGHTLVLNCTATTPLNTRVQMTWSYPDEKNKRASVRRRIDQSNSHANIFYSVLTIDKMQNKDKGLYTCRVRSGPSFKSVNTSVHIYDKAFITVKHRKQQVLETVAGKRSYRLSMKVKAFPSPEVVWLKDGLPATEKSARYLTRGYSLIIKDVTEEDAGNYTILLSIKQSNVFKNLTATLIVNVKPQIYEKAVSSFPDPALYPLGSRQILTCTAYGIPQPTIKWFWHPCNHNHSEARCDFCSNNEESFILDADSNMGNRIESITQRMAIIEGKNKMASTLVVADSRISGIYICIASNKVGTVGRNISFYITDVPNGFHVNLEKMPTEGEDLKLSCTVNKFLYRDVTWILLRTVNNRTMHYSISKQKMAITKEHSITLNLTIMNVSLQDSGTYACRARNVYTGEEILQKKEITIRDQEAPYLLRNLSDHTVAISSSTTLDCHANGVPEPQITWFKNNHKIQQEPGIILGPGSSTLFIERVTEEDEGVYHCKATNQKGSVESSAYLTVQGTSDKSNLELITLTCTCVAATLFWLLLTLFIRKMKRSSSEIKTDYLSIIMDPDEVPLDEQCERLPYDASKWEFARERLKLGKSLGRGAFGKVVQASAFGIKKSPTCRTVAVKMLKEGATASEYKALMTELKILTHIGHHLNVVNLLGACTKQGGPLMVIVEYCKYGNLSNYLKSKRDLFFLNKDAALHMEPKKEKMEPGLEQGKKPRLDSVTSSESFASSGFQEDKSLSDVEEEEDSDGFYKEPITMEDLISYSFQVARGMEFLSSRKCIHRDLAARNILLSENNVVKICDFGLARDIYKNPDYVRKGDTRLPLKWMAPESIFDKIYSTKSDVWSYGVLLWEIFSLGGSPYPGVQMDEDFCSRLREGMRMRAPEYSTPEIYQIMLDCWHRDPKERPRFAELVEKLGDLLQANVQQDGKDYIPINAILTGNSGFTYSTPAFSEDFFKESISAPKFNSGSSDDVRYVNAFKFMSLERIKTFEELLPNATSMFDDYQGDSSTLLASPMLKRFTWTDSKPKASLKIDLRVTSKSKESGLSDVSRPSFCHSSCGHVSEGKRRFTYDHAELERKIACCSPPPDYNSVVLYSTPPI

With `N#Cc1cccc(-c2c[nH]c3ncnc(N4CCOCC4)c23)c1`, the % of control in test [1] was 100%; in test [2], 4.8%. Compound `Cc1cc(F)c(C(=O)Nc2cccc(-c3nncn3C(C)C)n2)cc1-n1cnc(C2CC2)c1` yielded a % of control in [3] of 85%. On to `CNC(=O)Nc1ccc(-c2nc(N3CC4CCC(C3)O4)c3cnn(C4CCC5(CC4)OCCO5)c3n2)cc1`, for which the % of control in [4] came to 86%; in test [5], 100%.

With `C=CC(=O)Nc1cc(-n2c(=O)ccc3cnc4ccc(-c5ccc(NS(C)(=O)=O)cc5)cc4c32)ccc1C`, the % of control was 100% in [6] (at 1 µM) and 96% in test [6] (at 10 µM). As for `Cc1ccc(-c2ccc3c(ccc4sc5c(c43)NC[C@@H](C)NC5=O)n2)cn1`, on Insulin receptor, the % of inhibition was determined as 5%.

In the case of `CN(C)CCOc1ccc(-c2nc(-c3ccncc3)c(-c3ccc4c(c3)CC/C4=N\O)[nH]2)cc1`, the % of control in test [7] was determined as 79%. In turn, `COc1cc(N(C)c2ccnc3ccc(C(F)(F)F)cc23)cc(OC)c1OC` displayed a % binding in [8] of 70%.
